We go through 21 molecules from patent US9637487B2, “Purinone compounds as kinase inhibitors” (Pharmacyclics LLC, priority 2013, dated 2017).

The term IC50 denotes the concentration needed to halve the response being measured.

For the test, the target named is Btk (Homo sapiens (Human), UniProt Q06187). Nature of the test: Btk in vitro inhibitory activity (one of Method A TR-FRET, Method B mobility shift, Method C radiometric filter binding). The note with it: determined using one of the methods outlined in Example 36a, 36b and 36c. In kind it is biochemical. As for the experimental part: Btk kinase activity is determined using a time-resolved fluorescence resonance energy transfer (TR-FRET) methodology. Measurements are performed in a reaction volume of 50 μL using 96-well assay plates. […] The reaction is quenched by the addition of 1.2 equivalents of EDTA (relative to divalent cation) in 25 μL of 1× Lance buffer (Perkin-Elmer). […] The TR-FRET signal is measured on a multimode plate reader with an excitation wavelength (λEx) of 330 nm and detection wavelengths (λEm) of 615 and 665 nm. Activity is determined by the ratio of the fluorescence at 665 nm to that at 615 nm. For each compound, enzyme activity is measured at various concentrations of compound. Negative control reactions are performed in the absence of inhibitor in replicates of six, and two no-enzyme controls are used to determine baseline fluorescence levels Inhibition constants, Ki(app), ware obtained using the program BatchKi (Kuzmic et al. (2000), Anal. Biochem. 286:45-50). IC50s are obtained according to the equation: IC50={Ki(app)/(1+[ATP]/Km^ATP)}+[E]total/2;
Sequence of Btk (Q06187 whole entry): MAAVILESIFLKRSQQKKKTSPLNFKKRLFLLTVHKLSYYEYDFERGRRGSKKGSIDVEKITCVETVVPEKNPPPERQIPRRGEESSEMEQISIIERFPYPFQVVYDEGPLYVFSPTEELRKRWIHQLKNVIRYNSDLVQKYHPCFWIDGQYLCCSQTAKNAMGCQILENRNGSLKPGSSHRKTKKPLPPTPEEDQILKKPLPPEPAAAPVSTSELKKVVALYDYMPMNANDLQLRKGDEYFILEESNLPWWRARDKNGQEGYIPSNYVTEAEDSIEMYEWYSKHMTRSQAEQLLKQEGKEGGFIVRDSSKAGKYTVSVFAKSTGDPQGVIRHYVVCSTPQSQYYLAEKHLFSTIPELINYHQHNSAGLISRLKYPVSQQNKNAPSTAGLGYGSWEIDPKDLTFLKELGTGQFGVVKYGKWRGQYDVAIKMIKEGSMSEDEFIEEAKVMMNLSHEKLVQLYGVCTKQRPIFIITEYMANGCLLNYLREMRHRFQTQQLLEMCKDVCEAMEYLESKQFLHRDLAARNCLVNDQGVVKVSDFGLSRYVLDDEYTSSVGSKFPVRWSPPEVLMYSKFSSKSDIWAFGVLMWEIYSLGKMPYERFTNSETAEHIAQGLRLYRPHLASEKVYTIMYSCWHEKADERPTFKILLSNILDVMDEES
Kinase activity is measured in vitro using electrophoretic mobility shift assay. The kinase reactions are assembled in a total volume of 25 μL in 384 well plates. […] The reaction is incubated for one hour and is quenched by the addition of 45 μL of termination buffer (100 mM HEPES, pH7.5, 0.01% Triton X-100, 30 mM EDTA). The terminated reactions are analyzed using 12 channel LabChip® 3000 microfluidic detection instrument (Caliper Life Sciences). […] Change in the relative fluorescence intensity of the substrate and product peaks is the parameter measured, reflecting enzyme activity. In the presence of an inhibitor, the ratio between product and substrate is altered: the signal of the product decreases, while the signal of the substrate increases.
Activity in each sample is determined as the product to sum ratio (PSR):P/(S+P), where P is the peak height of the product peptide and S is the peak height of the substrate peptide. For each compound, enzyme activity is measured at various concentrations (12 concentrations of compound spaced by 3× dilution intervals). Negative control samples (0%-inhibition in the absence of inhibitor) and positive control samples (100%-inhibition, in the presence of 20 mM EDTA) are assembled in replicates of four and are used to calculate %-inhibition values for each inhibitor at each concentration. Percent inhibition (Pinh) is determined using following equation: Pinh=(PSR0%−PSRinh)/(PSR0%−PSR100%)*100, where PSRinh is the product sum ratio in the presence of inhibitor, PSR0% is the average product sum ration in the absence of inhibitor and PSR100% is the average product sum ratio in 100%-inhibition control samples;
The IC50 values of inhibitors are determined by 4 parameter sigmoidal dose-response model fitting of the inhibition curves (Pinh versus inhibitor concentration) using XLfit 4 software.
IC50 values and curve fits were obtained using Prism (GraphPad Software).
The degree of Btk inhibition was determined using one of the methods outlined in Example 36a, 36b and 36c.
(TR-FRET usually uses a lanthanide donor and a delayed reading to cut background.)
In the case of `CN(C)C/C=C/C(=O)N(C)c1cccc(-n2c(=O)n(-c3ccc(C(=O)Nc4ccc(Cl)cn4)cc3)c3c(N)ncnc32)c1` [Compound 17, (E)-4-(6-amino-9-(3-(4-(dimethylamino)-N-methylbut-2-enamido)phenyl)-8-oxo-8,9-dihydro-7H-purin-7-yl)-N-(5-chloropyridin-2-yl)benzamide], the IC50 was less than 100 nM.
On to `CCCc1ccnc(NC(=O)c2ccc(-n3c(=O)n(-c4cccc(N(C)C(=O)/C=C/CN(C)C)c4)c4ncnc(N)c43)cc2)c1` [Compound 9, (E)-4-(6-amino-9-(3-(4-(dimethylamino)-N-methylbut-2-enamido)phenyl)-8-oxo-8,9-dihydro-7H-purin-7-yl)-N-(4-propylpyridin-2-yl)benzamide], for which the IC50 was less than 100 nM.
For the molecule `CN(C(=O)/C=C/CN(C)C1CC1)c1cccc(-n2c(=O)n(-c3ncc(Oc4ccccc4)cn3)c3c(N)ncnc32)c1` [Compound 69, (E)-N-(3-(6-amino-8-oxo-7-(5-phenoxypyrimidin-2-yl)-7H-purin-9(8H)-yl)phenyl)-4-(cyclopropyl(methyl)amino)-N-methylbut-2-enamide], the half-inhibitory concentration (IC50) was less than 100 nM.
With `CN(C)C/C=C/C(=O)N(C)c1cccc(-n2c(=O)n(-c3ccc(C(=O)c4ccccc4)cc3)c3c(N)ncnc32)c1` [Compound 26, (E)-N-(3-(6-amino-7-(4-benzoylphenyl)-8-oxo-7H-purin-9(8H)-yl)phenyl)-4-(dimethylamino)-N-methylbut-2-enamide] the figure was less than 100 nM; with `Cc1csc(NC(=O)c2ccc(-n3c(=O)n(-c4cccc(N(C)C(=O)/C=C/CN(C)C)c4)c4ncnc(N)c43)cc2)n1` [Compound 20, (E)-4-(6-amino-9-(3-(4-(dimethylamino)-N-methylbut-2-enamido)phenyl)-8-oxo-8,9-dihydro-7H-purin-7-yl)-N-(4-methylthiazol-2-yl)benzamide], less than 100 nM.
Take `CN(C(=O)/C=C/CN(C)C1CC1)c1cccc(-n2c(=O)n(-c3ccc(Oc4ccccn4)cc3)c3c(N)ncnc32)c1` [Compound 63, (E)-N-(3-(6-amino-8-oxo-7-(4-(pyridin-2-yloxy)phenyl)-7H-purin-9(8H)-yl)phenyl)-4-(cyclopropyl(methyl)amino)-N-methylbut-2-enamide]: the concentration for half-maximal inhibition (IC50) is less than 100 nM.
For `CN(C)C/C=C/C(=O)N(C)c1cccc(-n2c(=O)n(-c3ccc(C(=O)Nc4cccc(-c5ncccn5)c4)cc3)c3c(N)ncnc32)c1` [Compound 12, (E)-4-(6-amino-9-(3-(4-(dimethylamino)-N-methylbut-2-enamido)phenyl)-8-oxo-8,9-dihydro-7H-purin-7-yl)-N-(3-(pyrimidin-2-yl)phenyl)benzamide] the value was less than 100 nM.
For `CN(C(=O)/C=C/CN(C)C1CC1)c1cccc(-n2c(=O)n(-c3ccc(Oc4ccccc4)nc3)c3c(N)ncnc32)c1` [Compound 49, (E)-N-(3-(6-amino-8-oxo-7-(6-phenoxypyridin-3-yl)-7H-purin-9(8H)-yl)phenyl)-4-(cyclopropyl(methyl)amino)-N-methylbut-2-enamide] the value was less than 100 nM; for `Cc1cc(NC(=O)c2ccc(-n3c(=O)n(-c4cccc(N(C)C(=O)/C=C/CN(C)C)c4)c4ncnc(N)c43)cc2)ncc1F` [Compound 16, (E)-4-(6-amino-9-(3-(4-(dimethylamino)-N-methylbut-2-enamido)phenyl)-8-oxo-8,9-dihydro-7H-purin-7-yl)-N-(5-fluoro-4-methylpyridin-2-yl)benzamide], less than 100 nM; for `CN(C)C/C=C/C(=O)N(C)c1cccc(-n2c(=O)n(-c3ccc(C(=O)Nc4ncccc4F)cc3)c3c(N)ncnc32)c1` [Compound 13, (E)-4-(6-amino-9-(3-(4-(dimethylamino)-N-methylbut-2-enamido)phenyl)-8-oxo-8,9-dihydro-7H-purin-7-yl)-N-(3-fluoropyridin-2-yl)benzamide], 100 to 1000 nM.
For `CNC(=O)/C(C#N)=C/c1cccc(-n2c(=O)n(-c3ccc(Oc4ccccc4)cc3)c3c(N)ncnc32)c1` [Compound 44, (E)-3-(3-(6-amino-8-oxo-7-(4-phenoxyphenyl)-7H-purin-9(8H)-yl)phenyl)-2-cyano-N-methylacrylamide] the value was less than 100 nM; for `CN(C)C/C=C/C(=O)N(C)c1cccc(-n2c(=O)n(-c3ccc(C(=O)Nc4nccs4)cc3)c3c(N)ncnc32)c1` [Compound 18, (E)-4-(6-amino-9-(3-(4-(dimethylamino)-N-methylbut-2-enamido)phenyl)-8-oxo-8,9-dihydro-7H-purin-7-yl)-N-(thiazol-2-yl)benzamide], less than 100 nM.
Take `CN(C(=O)C1(C#N)CC1)c1cccc(-n2c(=O)n(-c3ccc(Oc4ccccc4)cc3)c3c(N)ncnc32)c1` [Compound 34, N-(3-(6-amino-8-oxo-7-(4-phenoxyphenyl)-7H-purin-9(8H)-yl)phenyl)-1-cyano-N-methylcyclopropanecarboxamide]: the 50% inhibitory concentration (IC50) fell in the range of 100 to 1000 nM.
For `Cc1ccnc(NC(=O)c2ccc(-n3c(=O)n(-c4cccc(N(C)C(=O)/C=C/CN(C)C)c4)c4ncnc(N)c43)cc2)c1` [Compound 7, (E)-4-(6-amino-9-(3-(4-(dimethylamino)-N-methylbut-2-enamido)phenyl)-8-oxo-8,9-dihydro-7H-purin-7-yl)-N-(4-methylpyridin-2-yl)benzamide], the IC50 was less than 100 nM.
For `CN(C(=O)/C=C/CN(C)C1CC1)c1cccc(-n2c(=O)n(-c3ccc(C(=O)c4ccccc4)cc3)c3c(N)ncnc32)c1` [Compound 27, (E)-N-(3-(6-amino-7-(4-benzoylphenyl)-8-oxo-7H-purin-9(8H)-yl)phenyl)-4-(cyclopropyl(methyl)amino)-N-methylbut-2-enamide] the value was less than 100 nM.
For `CCc1ccnc(NC(=O)c2ccc(-n3c(=O)n(-c4cccc(N(C)C(=O)/C=C/CN(C)C)c4)c4ncnc(N)c43)cc2)c1` [Compound 8, (E)-4-(6-amino-9-(3-(4-(dimethylamino)-N-methylbut-2-enamido)phenyl)-8-oxo-8,9-dihydro-7H-purin-7-yl)-N-(4-ethylpyridin-2-yl)benzamide] the value was less than 100 nM; for `CN(C)C/C=C/C(=O)N(C)c1cccc(-n2c(=O)n(-c3ccc(C(=O)Nc4ccc(F)cn4)cc3)c3c(N)ncnc32)c1` [Compound 14, (E)-4-(6-amino-9-(3-(4-(dimethylamino)-N-methylbut-2-enamido)phenyl)-8-oxo-8,9-dihydro-7H-purin-7-yl)-N-(5-fluoropyridin-2-yl)benzamide], less than 100 nM; for `Cc1nnc(NC(=O)c2ccc(-n3c(=O)n(-c4cccc(N(C)C(=O)/C=C/CN(C)C)c4)c4ncnc(N)c43)cc2)s1` [Compound 24, (E)-4-(6-amino-9-(3-(4-(dimethylamino)-N-methylbut-2-enamido)phenyl)-8-oxo-8,9-dihydro-7H-purin-7-yl)-N-(5-methyl-1,3,4-thiadiazol-2-yl)benzamide], 1000 to 10000 nM.
For `CN(C)C/C=C/C(=O)N(C)c1cccc(-n2c(=O)n(-c3ccc(C(=O)Nc4cc(C(F)(F)F)ccn4)cc3)c3c(N)ncnc32)c1` [Compound 10, (E)-4-(6-amino-9-(3-(4-(dimethylamino)-N-methylbut-2-enamido)phenyl)-8-oxo-8,9-dihydro-7H-purin-7-yl)-N-(4-(trifluoromethyl)pyridin-2-yl)benzamide], the IC50 is less than 100 nM.
With `CN(C)C/C=C/C(=O)N(C)c1cccc(-n2c(=O)n(-c3ccc(OC4CC4)cc3)c3c(N)ncnc32)c1` [Compound 28, (E)-N-(3-(6-amino-7-(4-cyclopropoxyphenyl)-8-oxo-7H-purin-9(8H)-yl)phenyl)-4-(dimethylamino)-N-methylbut-2-enamide] the figure was 100 to 1000 nM; with `CN(C)C/C=C/C(=O)N(C)c1cccc(-n2c(=O)n(-c3ccc(C(=O)Nc4nc5c(s4)CCCC5)cc3)c3c(N)ncnc32)c1` [Compound 22, (E)-4-(6-amino-9-(3-(4-(dimethylamino)-N-methylbut-2-enamido)phenyl)-8-oxo-8,9-dihydro-7H-purin-7-yl)-N-(4,5,6,7-tetrahydrobenzo[d]thiazol-2-yl)benzamide], less than 100 nM.
